Experimental data published in PubChem BioAssay (NCI).
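Compound exposure: 48 hours, 5 concentrations, 96-well plates. The concentration for full growth arrest is given as TGI.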

What was measured:
Assay in all cases: NCI anticancer screen, dose series, 48 h
NCI-H226 lung = tested on: NCI-H226 lung
HOP-62 NSCLC = tested on: HOP-62 NSCLC
OVCAR-4 ovarian = tested on: OVCAR-4 ovarian
SNB-19 CNS = tested on: SNB-19 CNS
SK-OV-3 ovarian = tested on: SK-OV-3 ovarian
SF-539 CNS = tested on: SF-539 CNS
HCT-116 colon = tested on: HCT-116 colon
786-0 renal = tested on: 786-0 renal
SN12C renal = tested on: SN12C renal
M19-MEL melanoma = tested on: M19-MEL melanoma
KM12 colon = tested on: KM12 colon
OVCAR-3 ovarian = tested on: OVCAR-3 ovarian
KM20L2 colon = tested on: KM20L2 colon
TK-10 renal = tested on: TK-10 renal
HCC-2998 colon = tested on: HCC-2998 colon
SK-MEL-28 melanoma = tested on: SK-MEL-28 melanoma
RPMI-8226 leukemia = tested on: RPMI-8226 leukemia
SF-295 CNS = tested on: SF-295 CNS
COLO 205 colon = tested on: COLO 205 colon
UO-31 renal = tested on: UO-31 renal
HOP-18 NSCLC = tested on: HOP-18 NSCLC
HCT-15 colon = tested on: HCT-15 colon
HOP-92 NSCLC = tested on: HOP-92 NSCLC
DLD-1 colon = tested on: DLD-1 colon
LOX IMVI melanoma = tested on: LOX IMVI melanoma
SNB-75 CNS = tested on: SNB-75 CNS
IGROV1 ovarian = tested on: IGROV1 ovarian
DMS 114 small cell lung = tested on: DMS 114 small cell lung
A549 NSCLC = tested on: A549 NSCLC
HT29 colon = tested on: HT29 colon
HL-60(TB) leukemia = tested on: HL-60(TB) leukemia
NCI-H522 lung = tested on: NCI-H522 lung
EKVX NSCLC = tested on: EKVX NSCLC
OVCAR-8 ovarian = tested on: OVCAR-8 ovarian
SNB-78 CNS = tested on: SNB-78 CNS
MOLT-4 leukemia = tested on: MOLT-4 leukemia
A498 renal = tested on: A498 renal
M14 melanoma = tested on: M14 melanoma
XF 498 CNS = tested on: XF 498 CNS
UACC-62 melanoma = tested on: UACC-62 melanoma
CCRF-CEM leukemia = tested on: CCRF-CEM leukemia
ACHN renal = tested on: ACHN renal
UACC-257 melanoma = tested on: UACC-257 melanoma
K-562 leukemia = tested on: K-562 leukemia
U251 CNS = tested on: U251 CNS
NCI-H23 lung = tested on: NCI-H23 lung
LXFL 529 NSCLC = tested on: LXFL 529 NSCLC
SW-620 colon = tested on: SW-620 colon
SK-MEL-2 melanoma = tested on: SK-MEL-2 melanoma
NCI-H460 lung = tested on: NCI-H460 lung
SF-268 CNS = tested on: SF-268 CNS
RXF 393 renal = tested on: RXF 393 renal
DMS 273 small cell lung = tested on: DMS 273 small cell lung
SR leukemia = tested on: SR leukemia
CAKI-1 renal = tested on: CAKI-1 renal
SK-MEL-5 melanoma = tested on: SK-MEL-5 melanoma
OVCAR-5 ovarian = tested on: OVCAR-5 ovarian
MALME-3M melanoma = tested on: MALME-3M melanoma

SMILES: CCOC(=O)C(Cc1c[nH]c2cc([N+](=O)[O-])ccc12)NS(=O)(=O)c1ccc2ccccc2c1 (centres undefined)
- TGI (NCI-H226 lung): 48.2 µM
- TGI (HOP-62 NSCLC): 31.4 µM
- TGI (OVCAR-4 ovarian): 28 µM
- TGI (SNB-19 CNS): > 100 µM
- TGI (SK-OV-3 ovarian): 68.6 µM
- TGI (SF-539 CNS): 32.9 µM
- TGI (HCT-116 colon): 30.9 µM
- TGI (786-0 renal): 76.1 µM
- TGI (SN12C renal): 34.4 µM
- TGI (M19-MEL melanoma): 30.9 µM
- TGI (KM12 colon): 30.8 µM
- TGI (OVCAR-3 ovarian): 31.5 µM
- TGI (KM20L2 colon): 33.9 µM
- TGI (TK-10 renal): 74.3 µM
- TGI (HCC-2998 colon): 49.4 µM
- TGI (SK-MEL-28 melanoma): 32.1 µM
- TGI (RPMI-8226 leukemia): > 100 µM
- TGI (SF-295 CNS): 32.5 µM
- TGI (COLO 205 colon): 32.1 µM
- TGI (UO-31 renal): 63.5 µM
- TGI (HOP-18 NSCLC): > 100 µM
- TGI (HCT-15 colon): 41.2 µM
- TGI (HOP-92 NSCLC): 51.6 µM
- TGI (DLD-1 colon): 65.7 µM
- TGI (LOX IMVI melanoma): 31.6 µM
- TGI (SNB-75 CNS): 50.4 µM
- TGI (IGROV1 ovarian): 48 µM
- TGI (DMS 114 small cell lung): 38.3 µM
- TGI (A549 NSCLC): > 100 µM
- TGI (HT29 colon): 31 µM
- TGI (HL-60(TB) leukemia): 48.5 µM
- TGI (NCI-H522 lung): 30.4 µM
- TGI (EKVX NSCLC): 78.1 µM
- TGI (OVCAR-8 ovarian): 55.7 µM
- TGI (SNB-78 CNS): 47.7 µM
- TGI (MOLT-4 leukemia): > 100 µM
- TGI (A498 renal): 80 µM
- TGI (M14 melanoma): 34.1 µM
- TGI (XF 498 CNS): 31.3 µM
- TGI (UACC-62 melanoma): 31.3 µM
- TGI (CCRF-CEM leukemia): 49.1 µM
- TGI (ACHN renal): 57.9 µM
- TGI (UACC-257 melanoma): 28.8 µM
- TGI (K-562 leukemia): 39.1 µM
- TGI (U251 CNS): 32.9 µM
- TGI (NCI-H23 lung): 48.4 µM
- TGI (LXFL 529 NSCLC): 32.5 µM
- TGI (SW-620 colon): 44.4 µM
- TGI (SK-MEL-2 melanoma): 35.1 µM
- TGI (NCI-H460 lung): 35.5 µM
- TGI (SF-268 CNS): 43.5 µM
- TGI (RXF 393 renal): 37.8 µM
- TGI (DMS 273 small cell lung): 32.1 µM
- TGI (SR leukemia): 68.2 µM

SMILES: O=C(c1ccc(Cl)cc1)N(C(=S)N1CCN(c2ccccn2)CC1)C1CCCCC1
- TGI (NCI-H226 lung): 70.5 µM
- TGI (HOP-62 NSCLC): > 100 µM
- TGI (OVCAR-4 ovarian): > 100 µM
- TGI (SNB-19 CNS): > 100 µM
- TGI (SK-OV-3 ovarian): > 100 µM
- TGI (SF-539 CNS): > 100 µM
- TGI (HCT-116 colon): > 100 µM
- TGI (786-0 renal): > 100 µM
- TGI (SN12C renal): > 100 µM
- TGI (M19-MEL melanoma): > 100 µM
- TGI (KM12 colon): > 100 µM
- TGI (OVCAR-3 ovarian): > 100 µM
- TGI (KM20L2 colon): > 100 µM
- TGI (TK-10 renal): > 100 µM
- TGI (SK-MEL-28 melanoma): > 100 µM
- TGI (RPMI-8226 leukemia): > 100 µM
- TGI (SF-295 CNS): > 100 µM
- TGI (COLO 205 colon): > 100 µM
- TGI (UO-31 renal): > 100 µM
- TGI (HOP-18 NSCLC): > 100 µM
- TGI (HCT-15 colon): > 100 µM
- TGI (HOP-92 NSCLC): > 100 µM
- TGI (DLD-1 colon): > 100 µM
- TGI (LOX IMVI melanoma): > 100 µM
- TGI (SNB-75 CNS): > 100 µM
- TGI (IGROV1 ovarian): > 100 µM
- TGI (DMS 114 small cell lung): > 100 µM
- TGI (A549 NSCLC): > 100 µM
- TGI (HT29 colon): > 100 µM
- TGI (HL-60(TB) leukemia): > 100 µM
- TGI (NCI-H522 lung): > 100 µM
- TGI (OVCAR-8 ovarian): > 100 µM
- TGI (CAKI-1 renal): > 100 µM
- TGI (SNB-78 CNS): > 100 µM
- TGI (MOLT-4 leukemia): 96.5 µM
- TGI (M14 melanoma): > 100 µM
- TGI (SK-MEL-5 melanoma): > 100 µM
- TGI (XF 498 CNS): 80.3 µM
- TGI (UACC-62 melanoma): > 100 µM
- TGI (CCRF-CEM leukemia): > 100 µM
- TGI (ACHN renal): > 100 µM
- TGI (OVCAR-5 ovarian): > 100 µM
- TGI (UACC-257 melanoma): > 100 µM
- TGI (K-562 leukemia): > 100 µM
- TGI (U251 CNS): > 100 µM
- TGI (NCI-H23 lung): > 100 µM
- TGI (LXFL 529 NSCLC): > 100 µM
- TGI (SW-620 colon): > 100 µM
- TGI (SK-MEL-2 melanoma): > 100 µM
- TGI (MALME-3M melanoma): > 100 µM
- TGI (NCI-H460 lung): > 100 µM
- TGI (SF-268 CNS): > 100 µM
- TGI (RXF 393 renal): > 100 µM
- TGI (DMS 273 small cell lung): > 100 µM
- TGI (SR leukemia): > 100 µM
